Measurements from patent US12492202B2, “Macrocyclic PAD4 inhibitors useful as immunosuppressant” (BRISTOL-MYERS SQUIBB COMPANY, priority 2020, dated 2025).

Molecular target: human PAD4 (hPAD4) (Homo sapiens (Human), UniProt Q9UM07)
Assay: RFMS Human PAD4 Functional Assay
Assay type: biochemical
Details: rapid-fire mass spectrum (RFMS) assay; 5 nM hPAD4 enzyme, 250 μM BAEE, 30 min preincubation at 37° C.

human PAD4 (hPAD4), sequence (Q9UM07 whole entry): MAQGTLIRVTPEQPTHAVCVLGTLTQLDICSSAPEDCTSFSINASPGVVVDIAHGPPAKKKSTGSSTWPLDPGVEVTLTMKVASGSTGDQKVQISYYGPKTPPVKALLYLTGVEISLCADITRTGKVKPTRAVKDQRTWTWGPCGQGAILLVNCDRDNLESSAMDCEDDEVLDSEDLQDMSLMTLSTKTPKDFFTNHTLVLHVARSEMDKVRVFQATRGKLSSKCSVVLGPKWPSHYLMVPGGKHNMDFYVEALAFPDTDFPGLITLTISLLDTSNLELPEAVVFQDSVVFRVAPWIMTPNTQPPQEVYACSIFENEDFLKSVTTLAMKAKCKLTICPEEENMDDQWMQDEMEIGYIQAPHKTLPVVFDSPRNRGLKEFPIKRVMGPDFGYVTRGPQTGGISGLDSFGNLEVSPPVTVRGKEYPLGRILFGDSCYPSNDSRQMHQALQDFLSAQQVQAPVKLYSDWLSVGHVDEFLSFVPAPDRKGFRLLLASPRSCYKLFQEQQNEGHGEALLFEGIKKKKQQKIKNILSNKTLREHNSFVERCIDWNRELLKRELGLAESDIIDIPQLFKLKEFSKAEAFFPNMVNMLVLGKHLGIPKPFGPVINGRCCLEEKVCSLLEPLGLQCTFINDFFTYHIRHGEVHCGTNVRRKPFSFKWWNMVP

| IC50 [nM] | SMILES |
| --- | --- |
| 37 | COc1cc(C(=O)N2C[C@H](N)C[C@@H](F)C2)cc2nc3n(c12)Cc1cnn(c1)CCCCCCCn1c-3cc2ccccc21 [Example 5, ((3R,5R)-3-amino-5-fluoropiperidin-1-yl)((Z)-2^7-methoxy-1^1H,2^1H,4^1H-2(2,1)-benzo[d]imidazola-1(2,1)-indola-4(4,1)-pyrazolacycloundecaphane-2^5-yl)methanone] |
| 1370 | COc1cc(C(=O)N2CC3CCC2[C@@H]3N)cc2nc3n(c12)Cc1cnn(c1)CCCCCCn1c-3cc2cccnc21 (stereo partly drawn) [Example 2, ((7R)-7-Amino-2-azabicyclo[2.2.1]heptan-2-yl)((Z)-2^7-methoxy-1^1H,2^1H,4^1H-1,2(2,1)-dipyrrolo[2,3-b]pyridina-4(4,1)-pyrazolacyclodecaphane-2^5-yl)methanone] |
| 30 | COc1cc(C(=O)N2CC3CCC2[C@@H]3N)cc2nc3n(c12)Cc1cccc(c1)-c1ccccc1OCCCn1c-3cc2cccnc21 (stereo partly drawn) [Example 34, ((1R,4R,7R)-7-amino-2-azabicyclo[2.2.1]heptan-2-yl)(2^7-methoxy-1^1H,2^1H-6-oxa-1,2(2,1)-dipyrrolo[2,3-b]pyridina-4(1,3),5(1,2)-dibenzenacyclononaphane-2^5-yl)methanone] |
| 30.6 | COc1cc(C(=O)N2C[C@H]3CC[C@@H]2[C@@H]3N)cc2nc3n(c12)Cc1cccc(c1)[C@H](O)[C@H](O)CCCCn1c-3cc2cccnc21 (single isomer, unassigned) [Example 45] |
| 30 | COc1cc(C(=O)N2C[C@H]3CC[C@@H]2[C@@H]3N)cc2nc3n(c12)CCC(=O)Nc1ccccc1OCCCn1c-3cc2cccnc21 [Example 40, 21-((1R,4R,7R)-7-amino-2-azabicyclo[2.2.1]heptane-2-carbonyl)-19-methoxy-7,8,16,17-tetrahydro-6H-benzo[b]benzo[4,5]imidazo[1,2-h]pyrido[3′,2′:4,5]pyrrolo[2,1-j][1]oxa[4,8,11]triazacyclotetradecin-15(14H)-one] |
| 66 | COc1cc(C(=O)N2C[C@H](N)C[C@@H](F)C2)cc2nc3n(c12)Cc1cnn(c1)CCCCCCn1c-3cc2ccccc21 [Example 13, ((3R,5R)-3-amino-5-fluoropiperidin-1-yl)((E)-2^7-methoxy-1^1H,2^1H,4^1H-2(2,1)-benzo[d]imidazola-1(2,1)-indola-4(3,1)-pyrazolacyclodecaphane-2^5-yl) methanone] |
| 292 | COc1cc(C(=O)N2C[C@H](N)C[C@@H](F)C2)cc2nc3n(c12)Cc1cccc(c1)[C@H](O)[C@H](O)CCCCn1c-3cc2cccnc21 (single isomer, unassigned) [Example 49] |
| 18800 | COc1cc(C(=O)N2CCC[C@@H](N)C2)cc2nc3n(c12)Cc1cnn(c1)CCCCCCn1c-3cc2cccnc21 [Example 11, ((R)-3-aminopiperidin-1-yl)((Z)-2^7-methoxy-1^1H,2^1H,4^1H-1,2(2,1)-dipyrrolo[2,3-b]pyridina-4(4,1)-pyrazolacyclodecaphane-2^5-yl)methanone] |
| 40 | COc1cc(C(=O)N2C[C@H](N)C[C@@H](F)C2)cc2nc3n(c12)Cc1cnn(c1)-c1ccccc1OCCCn1c-3cc2cccnc21 [Example 15, ((3R,5R)-3-amino-5-fluoropiperidin-1-yl)((Z)-2^7-methoxy-1^1H,2^1H,4^1H-6-oxa-1,2(2,1)-dipyrrolo[2,3-b]pyridina-4(4,1)-pyrazola-5(1,2)-benzenacyclononaphane-2^5-yl)methanone] |
| 78 | COc1cc(C(=O)N2C[C@H]3CC[C@@H]2[C@@H]3N)cc2nc3n(c12)CC1CC(=O)N(C1)c1ccccc1CCCCn1c-3cc2cccnc21 (single isomer, unassigned) [Example 38] |
| 31 | COc1cc(C(=O)N2C[C@H](N)C[C@@H](F)C2)cc2nc3n(c12)Cc1cc(F)cc(c1)-c1ccccc1CCCCn1c-3cc2cccnc21 [Example 25, ((3R,5R)-3-amino-5-fluoropiperidin-1-yl)(4^5-fluoro-2^7-methoxy-1^1H,2^1H-1,2(2,1)-dipyrrolo[2,3-b]pyridina-4(1,3),5(1,2)-dibenzenacyclononaphane-2^5-yl)methanone] |
| 21 | COc1cc(C(=O)N2C[C@H](N)C[C@@H](F)C2)cc2nc3n(c12)Cc1cc(C#N)cc(c1)-c1ccccc1CCCCn1c-3cc2cccnc21 [Example 26, 2^5-((3R,5R)-3-amino-5-fluoropiperidine-1 carbonyl)-2^7-methoxy-1^1H,2^1H-1,2(2,1)-dipyrrolo[2,3-b]pyridina-4(1,3),5(1,2)-dibenzenacyclononaphane-4^5-carbonitrile] |
| 216 | COc1cc(C(=O)N2C[C@H]3CC[C@@H]2[C@@H]3N)cc2nc3n(c12)Cc1cccc(c1)C1[C@@H](CCCCn2c-3cc3cccnc32)C1(F)F (stereo partly drawn) [Example 44, ((1R,4R,7R)-7-amino-2-azabicyclo[2.2.1]heptan-2-yl)((5^1S,5^2R)-5^3,5^3-difluoro-2^7-methoxy-1H,2^1H-1,2(2,1)-dipyrrolo[2,3-b]pyridina-4(1,3)-benzena-5(1,2)-cyclopropanacyclononaphane-2^5-yl)methanone] |
| 24 | COc1cc(C(=O)N2CC3CCC2[C@@H]3N)cc2nc3n(c12)Cc1cnn(c1)CCCCCCn1c-3cc2ccccc21 (stereo partly drawn) [Example 4, ((7R)-7-amino-2-azabicyclo[2.2.1]heptan-2-yl)((Z)-2^7-methoxy-1^1H,2^1H,4^1H-2(2,1)-benzo[d]imidazola-1(2,1)-indola-4(4,1)-pyrazolacyclodecaphane-2^5-yl)methanone] |
| 13 | COc1cc(C(=O)N2C[C@H](N)C[C@@H](F)C2)cc2nc3n(c12)Cc1ccn(n1)-c1ccccc1OCCCn1c-3cc2ccccc21 [Example 20, ((3R,5R)-3-amino-5-fluoropiperidin-1-yl)((E)-2^7-methoxy-1^1H,2^1H,4^1H-6-oxa-2(2,1)-benzo[d]imidazola-l(2,1)-indola-4(3,1)-pyrazola-5(1,2)-benzenacyclononaphane-2^5-yl)methanone] |
| 837 | COc1cc(C(=O)N2C[C@H](N)C[C@@H](F)C2)cc2nc3n(c12)Cc1cccc(c1)[C@H](O)[C@H](O)CCCCn1c-3cc2cccnc21 (single isomer, unassigned) [Example 50] |
| 47 | COc1cc(C(=O)N2CC3CCC2[C@@H]3N)cc2nc3n(c12)Cc1cnn(c1)CCCCCCn1c-3cc2ccccc21 (stereo partly drawn) [Example 12, ((7R)-7-amino-2-azabicyclo[2.2.1]heptan-2-yl)((E)-2^7-methoxy-1^1H,2^1H,4^1H-2(2,1)-benzo[d]imidazola-1(2,1)-indola-4(3,1)-pyrazolacyclodecaphane-2^5-yl)methanone] |
| 49 | COc1cc(C(=O)N2CC3CCC2[C@@H]3N)cc2nc3n(c12)Cc1cc(C#N)cc(c1)-c1ccccc1CCCCn1c-3cc2cccnc21 (stereo partly drawn) [Example 27, 2^5-((1R,4R,7R)-7-amino-2-azabicyclo[2.2.1]heptane-2-carbonyl)-2^7-methoxy-1^1H,2^1H-1,2(2,1)-dipyrrolo[2,3-b]pyridina-4(1,3),5(1,2)-dibenzenacyclononaphane-4^5-carbonitrile] |
| 14 | COc1cc(C(=O)N2C[C@H]3CC[C@@H]2[C@@H]3N)cc2nc3n(c12)Cc1cncc(c1)-c1ccccc1CCCCn1c-3cc2ccc(C(C)(C)O)nc21 [Example 53, ((1R,4R,7R)-7-Amino-2-azabicyclo[2.2.1]heptan-2-yl)(1^6-(2-hydroxypropan-2-yl)-2^7-methoxy-1^1H,2^1H-1,2(2,1)-dipyrrolo[2,3-b]pyridina-4(3,5)-pyridina-5(1,2)-benzenacyclononaphane-2^5-yl)methanone] |
